Test [1] has as its system HEL. In words: Cell cycle arrest in human HEL cells assessed as accumulation at S phase at 0.5 uM after 48 hrs by propidium iodide staining-based flow cytometric analysis (reference value: 46.88%). It counts as functional. (Flow cytometry measures light scatter and fluorescence of single cells or particles in a stream.)
In test [2] the test system is HEL. In words: Cell cycle arrest in human HEL cells assessed as accumulation at G2 phase at 0.5 uM after 48 hrs by propidium iodide staining-based flow cytometric analysis (reference value: 5.28%). It counts as functional.
For test [3], the system named is HEL. The test can be described thus: Cytotoxicity against human HEL cells assessed as growth inhibition after 48 hrs by MTT assay in presence of SAHA. It counts as functional, cell-based. In general terms: Tetrazolium dyes change colour on reduction, which living cells bring about.
The test system of test [4] is HEL. The test can be described thus: Cytotoxicity against human HEL cells assessed as growth inhibition after 48 hrs by MTT assay. It counts as functional, cell-based.
In test [5] the test system is HEL. In words: Cell cycle arrest in human HEL cells assessed as accumulation at G1 phase at 0.5 uM after 48 hrs by propidium iodide staining-based flow cytometric analysis (reference value: 47.87%). It counts as functional.
The target of test [6] is Histone deacetylase (HDAC1 and HDAC2) (Homo sapiens, UniProt Q13547+Q92769). The test can be described thus: Inhibition of HDAC1/HDAC2 in human HeLa cells using Boc-Lys(acetyl)-AMC as substrate after 30 mins by fluorescence assay. It counts as cell-based.
Test [7] is described as follows: Cytotoxicity against human U937 cells assessed as growth inhibition after 48 hrs by MTT assay. The settings on record: U-937, 48 h. It counts as functional, cell-based.
Test [8] in a line: Cytotoxicity against human MDA cells assessed as growth inhibition after 48 hrs by MTT assay. It counts as functional, cell-based.
Test [9] can be described thus: Cytotoxicity against human HCT116 cells assessed as growth inhibition after 48 hrs by MTT assay. It counts as functional, cell-based. The settings on record: HCT-116, 48 h.
Test [10] can be described thus: Cytotoxicity against human KG1 cells assessed as growth inhibition after 48 hrs by MTT assay. It counts as functional, cell-based. Particulars: KG-1, 48 h.
The nature of test [11]: Cytotoxicity against human 3AO cells assessed as growth inhibition after 48 hrs by MTT assay. It counts as functional, cell-based.
Test [12] in a line: Cytotoxicity against human ES2 cells assessed as growth inhibition after 48 hrs by MTT assay. It counts as functional, cell-based. The settings on record: ES-2, 48 h.
The test system of the next test is HeLa. The test can be described thus: Cytotoxicity against human HeLa cells assessed as growth inhibition after 48 hrs by MTT assay. It counts as functional, cell-based.

Structures are written as SMILES. pIC50: −log10 of the molar value. A value given as a limit tells only on which side of the number the result lay.

In the case of `O=C(CCCCCCC(=O)Nc1ccccc1)NO` [VORINOSTAT], the Activity with HEL [1] was found to be 20.02%; with HEL [2] it was 0%.

The pIC50 is −log10 of the IC50, conventionally taken in molar units. Usually IC50 stands for the concentration needed to halve the response being measured. Low values mean inhibition by little substance, high ones a need for much substance. In the case of `O=S(=O)(c1ccccc1)c1no[n+]([O-])c1S(=O)(=O)c1ccccc1`, the pIC50 in the test on HEL [3] was 6.28; in the test on HEL [4], 6.16. For the same compound, the Activity in the test on HEL [5] is reported as 53.4%; with HEL [1], 43.29%; in the test with HEL [2], 3.3%. Besides, the IC50 in test [6] is above 1000 µM.

As for `CCCC(C)(COc1no[n+]([O-])c1S(=O)(=O)c1ccccc1)C(=O)NO` (stereo not drawn), the negative-log IC50 (pIC50) is 4.59 in [7]; 4.22 in [8]; 4.18 in test [9]; 4.15 in the test on HEL [4]; 5.39 in [10]; 4.05 in test [11]. Also, the pIC50 in test [12] is 4.03. The compound also showed a 50% inhibitory concentration (IC50) in [6] above 1000 µM.

As for `O=C(NO)c1ccc(Oc2no[n+]([O-])c2S(=O)(=O)c2ccccc2)cc1`, the pIC50 in test [7] was 5.33; in test [8] it was 5.18; in test [9], 5.57; in the test with HEL [4], 6.04; in [10], 5.91; with HeLa, 5.76. Also, the pIC50 in test [11] is 5.36; in [12] it was 5.66. Further, in test [6], the concentration for half-maximal inhibition (IC50) was 0.047 µM.

Turning to `O=C(/C=C/COc1no[n+]([O-])c1S(=O)(=O)c1ccccc1)NO`, the negative-log IC50 (pIC50) is 4.32 in test [8], 5.06 with HeLa, 4.24 in test [11] and 4.72 in test [12]. The half-inhibitory concentration (IC50) in test [6] was determined as 3.7 µM.

`O=C(COCCOCCOc1no[n+]([O-])c1S(=O)(=O)c1ccccc1)NO`: the negative logarithm of the IC50 (pIC50) was 4.92 in test [7]; 4.80 in [8]; 4.93 in test [9]; 5.43 with HEL [4]; 5.27 in test [10]; 5.29 in the test with HeLa. In addition, the pIC50 was 4.71 in test [11] and 4.74 in [12]. Besides, the concentration for half-maximal inhibition (IC50) in test [6] was found to be 4.3 µM.

Take `O=C(CCCOc1no[n+]([O-])c1S(=O)(=O)c1ccccc1)NO`: the pIC50 in test [7] was 5.48; in test [8], 5.21; in the test with HEL [4], 6.17; in [10] it was 5.83; in the test on HeLa it was 5.32; in test [11] it was 4.66. Further, the negative logarithm of the IC50 (pIC50) in test [12] is 5.42. In test [6], this compound gave a half-maximal inhibitory concentration (IC50) of 0.047 µM.

Turning to `CC(C)(COc1no[n+]([O-])c1S(=O)(=O)c1ccccc1)C(=O)NO`, the negative-log IC50 (pIC50) in [7] was 4.90; in [8] it was 5.02; in the test with HEL [4], 5.30; in [10], 5.22; in test [11] it was 4.74; in test [12] it was 5.16. This compound displayed an IC50 in [6] above 1000 µM.

For `O=C(CCCCCCOc1no[n+]([O-])c1S(=O)(=O)c1ccccc1)NO`, the pIC50 in test [7] is 5.00; in test [8], 5.92; in test [9], 5.33; with HEL [4], 5.03; in test [10], 5.37; in [12] it was 5.11. The IC50 in test [6] stood at 0.054 µM.

On to `O=C(CCCCOc1no[n+]([O-])c1S(=O)(=O)c1ccccc1)NO`, for which the negative logarithm of the IC50 (pIC50) was 5.54 in test [7]; 5.60 in test [8]; 5.66 in [9]; 5.99 in the test on HEL [4]; 5.72 in test [10]; 5.44 in the test on HeLa. In addition, the pIC50 is 5.37 in [11] and 5.60 in test [12]. Besides, the IC50 in [6] was 0.13 µM.

With `O=C(NO)c1cccc(Oc2no[n+]([O-])c2S(=O)(=O)c2ccccc2)c1`, the negative-log IC50 (pIC50) in test [7] was 5.19; in [8], 4.86; in test [9], 5.34; in the test with HEL [4] it was 5.59; in test [10], 5.73; with HeLa, 5.33. In addition, the pIC50 is 5.00 in test [11] and 5.38 in test [12]. Also, in test [6], the half-maximal inhibitory concentration (IC50) amounted to 1.6 µM.

As for `O=C(Cc1ccc(Oc2no[n+]([O-])c2S(=O)(=O)c2ccccc2)cc1)NO`, the negative-log IC50 (pIC50) in test [7] was 5.30; in test [8], 4.82; in test [9], 4.85; in the test on HEL [4], 4.89; in test [10], 5.74; in the test with HeLa, 4.98. Also, the pIC50 is 4.65 in [11] and 5.38 in test [12]. The same compound came in with an IC50 in [6] of 0.14 µM.

As to `O=S(=O)(c1ccccc1)c1c(OCCCCCCO)no[n+]1[O-]`, the pIC50 in the test with HEL [4] was 5.67. This compound yielded an IC50 in [6] above 1000 µM.

As for `O=C(/C=C/c1ccc(Oc2no[n+]([O-])c2S(=O)(=O)c2ccccc2)cc1)NO`, the pIC50 in test [7] was 4.79; in [8], 4.59; in [9] it was 5.09; in the test on HEL [4], 5.62; in [10], 5.56; with HeLa it was 4.98. The pIC50 in test [11] is 4.42; in [12], 4.62. The same compound gave a 50% inhibitory concentration (IC50) in test [6] of 0.15 µM.

For `O=C(COCCOc1no[n+]([O-])c1S(=O)(=O)c1ccccc1)NO`, the pIC50 is 5.09 in [7]; 4.82 in [8]; 4.87 in test [9]; 5.17 in the test on HEL [4]; 5.13 in [10]; 4.70 in test [11]. The negative logarithm of the IC50 (pIC50) in test [12] was 5.06. The 50% inhibitory concentration (IC50) in [6] was 1.5 µM.

For the compound `O=C(CCCCCCCOc1no[n+]([O-])c1S(=O)(=O)c1ccccc1)NO`, the pIC50 in test [7] was 5.03; in [8], 5.57; with HEL [4], 4.97; in [10], 6.20; with HeLa, 5.30; in test [12], 5.88. For the same compound, in [6], the IC50 stood at 0.063 µM.

For `COc1cc(C(=O)NO)ccc1Oc1no[n+]([O-])c1S(=O)(=O)c1ccccc1`, the pIC50 in test [7] is 5.44; in test [8] it was 5.10; in [9], 5.30; with HEL [4], 5.26; in test [10] it was 5.78; in the test on HeLa, 5.65. Also, the pIC50 in test [11] was 5.91; in test [12] it was 5.45. Besides, the 50% inhibitory concentration (IC50) in [6] came out at 7.3 µM.

The values above are taken from ChEMBL document CHEMBL3425494, “Design, synthesis, and antitumor evaluation of novel histone deacetylase inhibitors equipped with a phenylsulfonylfuroxan module as a nitric oxide donor” (J Med Chem, 2015).
